{"source": "paper PMC6476926", "about": "“Dichloro-Phenyl-Benzotriazoles: A New Selective Class of Human Respiratory Syncytial Virus Entry Inhibitors” (Frontiers in Chemistry, 2019)", "key": {"RSV virions": {"tested_on": "RSV virions", "test": "Virucidal activity assay", "type": "cell-based, Human Respiratory Syncytial Virus (RSV)", "conditions": "20 μM, 4°C or 37°C, 1 h", "procedure": "The mixture without test sample was used as the control. At the end of incubation period, samples were serially diluted in media and titers were determined on Vero-76 cells at high dilutions, at which the compound was not active. Virus titers were determined by plaque assay in Vero-76 cells."}, "RSV A2 [1]": {"tested_on": "RSV A2", "test": "Syncytium reduction assay", "conditions": "Vero-76, added 8 h p.i. at 50, 10, 2 μM, assessed 72 h p.i."}, "Reo-1": {"tested_on": "Reo-1", "test": "microbe, parasite or virus in culture", "type": "cell-based, Reovirus type-1 (Reo-1)", "conditions": "Reovirus sp., BHK, read-out: EC50 Reo-1"}, "Sb-1, VSV, VV, HSV-1": {"tested_on": "Sb-1, VSV, VV, HSV-1", "test": "organism not typed", "type": "cell-based", "conditions": "Vero 76, read-out: EC50 Sb-1, VSV, VV, HSV-1"}, "RSV [2]": {"tested_on": "RSV", "test": "Cell pretreatment assay", "type": "cell-based, Human Respiratory Syncytial Virus (RSV)", "conditions": "Vero-76 pretreated with 20 μM, 2 h at 4°C; titer 3 days post infection", "procedure": "After removal of the compound and two gentle washes, cells were infected with RSV. After virus adsorption to cells, the inoculum was removed and the cells were then overlaid with medium, incubated for 3 days at 37°C, and then virus titers were determined by plaque assay."}, "in vitro [3]": {"test": "in vitro", "conditions": "cattle (Bos taurus)"}, "[4]": {"test": "Cytotoxicity in continuous cell lines (summary statement)", "type": "cell-based", "conditions": "continuous cell lines from different organs and species (Table 1, Table S2); read-out: CC50 in most continuous cell lines", "procedure": "Exponentially growing MT-4 cells were seeded at an initial density of 4x10^5 cells/mL in 96-well plates containing RPMI-1640 medium, supplemented with 10% fetal bovine serum (FBS), 100 units/mL penicillin G and 100 μg/mL streptomycin. MDBK, Hep-2 and BHK cells were seeded at an initial density of 6 × 10^5, 5 × 10^5, and 1 × 10^6 cells/mL, respectively, in 96-well plates containing Minimum Essential Medium with Earle's salts (MEM-E), L-glutamine, 1 mM sodium pyruvate and 25 mg/L kanamycin, supplemented with 10% horse serum (MDBK) or 10% fetal bovine serum (FBS) (BHK; Hep-2). Vero-76 cells were seeded at an initial density of 5 × 10^5 cells/mL in 96-well plates containing in Dulbecco's Modified Eagle Medium (D-MEM) with L-glutamine and 25 mg/L kanamycin, supplemented with 10% FBS. Cell cultures were then incubated at 37°C in a humidified, 5% CO2 atmosphere, in the absence or presence of serial dilutions of test compounds. The test medium used for cytotoxic and antiviral assay contained 1% of the appropriate serum. Cell viability was determined after 72, 96, or 120 h at 37°C by the MTT method for MT-4, MDBK, Hep-2, BHK and Vero-76 cells (Budge et al., [2004])."}, "BVDV": {"tested_on": "BVDV", "test": "microbe, parasite or virus in culture", "type": "cell-based", "conditions": "Bovine viral diarrhea virus isolates and strains, MDBK, read-out: EC50 BVDV"}, "CV-B5": {"tested_on": "CV-B5", "test": "microbe, parasite or virus in culture", "type": "cell-based, Human Enterovirus B [coxsackie type B5 (CV-B5)]", "conditions": "Enterovirus B, CVB5, Vero 76, read-out: EC50 CV-B5"}, "RSV [5]": {"tested_on": "RSV", "test": "Time of addition assay", "type": "cell-based, Human Respiratory Syncytial Virus (RSV)", "conditions": "20 μM", "procedure": "After each incubation period, the monolayers were washed two times with maintenance medium and incubated with fresh medium until 10 h post-infection. Then, after 36 h the development of cytopathic effect (CPE) was evaluated microscopically and each sample was collected, centrifuged and frozen at −80°C. The viral titer was determined by plaque assay (or ELISA)."}, "YFV": {"tested_on": "YFV", "test": "microbe, parasite or virus in culture", "type": "cell-based", "conditions": "Yellow fever virus, BHK, read-out: EC50 YFV"}, "RSV [6]": {"tested_on": "RSV", "test": "microbe, parasite or virus in culture", "type": "cell-based, Human Respiratory Syncytial Virus (RSV) strain A2", "conditions": "human respiratory syncytial virus, Vero 76, read-out: EC50 RSV"}, "HIV-1IIIB": {"tested_on": "HIV-1IIIB", "test": "microbe, parasite or virus in culture", "type": "cell-based, Human Immunodeficiency Virus type-1 (HIV-1)", "conditions": "Human immunodeficiency virus 1, MT4, read-out: EC50 HIV-1IIIB"}, "[7]": {"test": "Cytotoxicity, MTT method, MT-4 cells", "conditions": "human"}, "[8]": {"test": "Cytotoxicity, MTT method, Vero-76 cells", "conditions": "African green monkey (Cercopithecus aethiops)"}, "RSV strain B1 cp-52": {"tested_on": "RSV strain B1 cp-52", "test": "microbe, parasite or virus in culture", "type": "cell-based", "conditions": "human respiratory syncytial virus, Vero 76, read-out: 50% inhibitory concentration RSV cp-52"}, "RSV [9]": {"tested_on": "RSV", "test": "Antigen reduction assay (ELISA) in RSV-infected Vero-76 cells"}, "RSV A2 [10]": {"tested_on": "RSV A2", "test": "Immunofluorescence attachment assay", "type": "cell-based, Human Respiratory Syncytial Virus (RSV)", "conditions": "4°C, Vero-76; 20 μM 10d, 6 μg/mL dextran sulfate, 5 μM 6-azauridine", "procedure": "Compounds' inhibitory effects on virus-cell binding event was measured by immunofluorescence performed according to the method described previously with some modifications (Maric et al., [2011]). […] After this incubation period, the monolayers were washed three times in cold PBS in order to remove unbound viral particles and then were fixed in paraformaldehyde 4%. The presence of bound virus was detected by indirect immunofluorescence. […] Abcam, Cambridge, United Kingdom). Cells were then washed three times in PBS-Tween-100 and incubated with a 1:500 dilution of an Alexa Fluor 488-labeled anti-mouse secondary antibody (Molecular Probes, Eugene, Oreg.). After a series of washes in PBS-Tween-100, cells were mounted with Vectashield (Vector Laboratories, Burlingame, CA) containing 4′,6-diamidino-2-phenylindole (DAPI) and images of each well were captured with the ZOE Fluorescent Cell Imager (Biorad)."}, "[11]": {"test": "Cytotoxicity, MTT method, BHK cells", "conditions": "Syrian hamster (Mesocricetus auratus)"}, "in vitro [12]": {"test": "in vitro", "conditions": "African green monkey (Cercopithecus aethiops)"}, "RSV F-protein": {"tested_on": "RSV F-protein", "conditions": "read-out: experimental IC50; ref Battles et al., [2016]; cited from earlier work"}}, "note": "Entries after “also recorded” stand apart in the source; their conditions may differ.", "data": [{"smiles": "O=C(Nc1ccc(-n2nc3cc(Cl)c(Cl)cc3n2)cc1)NC1CCCCC1", "note": "[10d, 1-[4-(5,6-dichloro-2H-benzo[d][1,2,3]triazol-2-yl)phenyl]-3-cyclohexylurea]", "values": [{"measurement": "virucidal effect", "setting": "RSV virions", "result": "negligible"}, {"measurement": "syncytium formation", "setting": "RSV A2 [1]", "result": "the number and the size of syncytia decreased in a dose-dependent manner; also recorded: both size and number of syncytia did not increase; also recorded: effective in reducing both syncytia area and number at a concentration of 50 μM; also recorded: dose-dependent reduction of syncytia area and number"}, {"measurement": "EC50", "setting": "Reo-1", "result": "> 71", "unit": "µM"}, {"measurement": "EC50", "setting": "Sb-1, VSV, VV, HSV-1", "result": "> 90", "unit": "µM"}, {"measurement": "inhibition of RSV infection after cell pretreatment", "setting": "RSV [2]", "result": "failed to inhibit RSV infection; also recorded: failed to prevent viral infection"}, {"measurement": "CC50", "setting": "in vitro [3]", "result": "> 100", "unit": "µM"}, {"measurement": "CC50", "setting": "[4]", "result": "< 70", "unit": "µM"}, {"measurement": "EC50", "setting": "BVDV", "result": "> 100", "unit": "µM"}, {"measurement": "EC50", "setting": "CV-B5", "result": "> 90", "unit": "µM"}, {"measurement": "inhibition of RSV, addition at later times", "setting": "RSV [5]; m.o.i. 1, 4–10 h after infection", "result": "failed to exhibit significant antiviral activity"}, {"measurement": "inhibition of RSV, addition in early phases", "setting": "RSV [5]; m.o.i. 1, during the 2 h of infection (t = 0) and immediately after", "result": "most efficient inhibition was observed in early phases of infection"}, {"measurement": "EC50", "setting": "YFV", "result": "> 71", "unit": "µM"}, {"measurement": "EC50", "setting": "RSV [6]", "result": 2, "unit": "µM"}, {"measurement": "EC50", "setting": "HIV-1IIIB", "result": "> 100", "unit": "µM"}, {"measurement": "CC50", "setting": "[7]", "result": "> 100", "unit": "µM"}, {"measurement": "CC50 at 5 days", "setting": "[8]", "result": 90, "unit": "µM"}, {"measurement": "IC50", "setting": "RSV strain B1 cp-52", "result": "7 ± 1", "unit": "µM"}, {"measurement": "reduction of viral antigen", "setting": "RSV [9]; ELISA, at 20 μM", "result": 80, "unit": "%"}, {"measurement": "EC50", "setting": "RSV [9]; human respiratory syncytial virus, Vero 76, read-out: EC50 viral antigen reduction", "result": 5, "unit": "µM"}, {"measurement": "inhibition of viral attachment", "setting": "RSV A2 [10]", "result": "does not inhibit viral attachment; also recorded: not able to block viral binding to cells"}, {"measurement": "CC50", "setting": "[11]", "result": 71, "unit": "µM"}, {"measurement": "melting point", "result": "> 300", "unit": "°C"}]}, {"smiles": "NC(=O)c1ncn([C@@H]2O[C@H](CO)[C@@H](O)[C@H]2O)n1", "note": "[ribavirin, reference compound]", "values": [{"measurement": "EC50", "setting": "RSV [6]", "result": 7, "unit": "µM"}, {"measurement": "CC50 at 5 days", "setting": "in vitro [12]", "result": "> 100", "unit": "µM"}]}, {"smiles": "Cc1ccc(CCCO)c(NCc2ccc3nc(NCCCN4CCOCC4)n(Cc4nc(C)ccc4O)c3c2)c1", "note": "[TMC353121]", "values": [{"measurement": "IC50", "setting": "RSV F-protein", "result": 0.0087, "unit": "µM"}]}]}
